One data set has as its system gastric acid secretion. The experiment in a line: Inhibition of gastric acid secretion in gastric fistula beagle dogs (histamine-stimulated). The class given is in vivo. The conditions noted are these: for inhibition in vivo at 3 mg/kg: Canis lupus familiaris, 4 h, read-out: Gastric-Fistula Beagle % Inhibition (3 mg/kg dose). The source says: Adult female beagle dogs weighing 6 to 11 kilograms obtained from Laboratory Research Enterprises (Kalamazoo, Mich.) or from Hazelton Research Animals (Cumberland, Va.) were surgically implanted with a simple Thomas-type gastric cannula. After recovery from surgery, the dogs were trained to stand quietly, fully conscious, in Pavlov-type dog restraining slings and were acclimated to intravenous infusion of histamine dihydrochloride. During the course of these studies, no dog was used more than once a week. All dogs were deprived of food, but not water, for 18 hours prior to each assay. Each dog was initially infused with 0.15 M sodium chloride solution at a constant rate of […]. The volume of gastric secretions, collected in plastic bottles affixed to the cannula, were measured to the nearest 0.1 ml at 30 minute intervals. One of the following protocols was followed, depending on the route chosen for administration of test compound.
Intravenous dosing: Following a 30-minute basal secretion period, test compounds were administered intravenously (i.v.). At the end of an additional 30 minute period, the saline infusion was replaced with histamine dihydrochloride in saline administered at a rate 15 mcg per kilogram of body weight per hour. Histamine stimulation was maintained for a maximum of four hours during which time gastric secretions were collected every 30 minutes. The pH and titratable acidity were determined for samples from each collection period.
Intragastric dosing: Following a 30-minute basal secretion period, he collection bottles were removed, dosing plugs here inserted, and test compounds were administered intragastrically (i.g.) At the end of a 30-minute drug absorption period, the stomachs were emptied, the collection bottles were reattached, and collections were resumed at 30-minute intervals. Simultaneously, the saline infusion was replaced with a continuous intravenous infusion of histamine dihydrochloride in saline administered for four hours at a rate 15 mcg per kilogram of body weight per hour.
Intraduodenal dosing: Dogs were also equipped with duodenal cannulas for intraduodenal (i.d.) administration of test compounds. Dosing was otherwise performed as described for intragastric dosing.
Data from each protocol were analyzed for three gastric sample variables: volume of gastric juice, acid concentration, and total acid output. Percent inhibition for each four-hour experimental period was determined for each parameter by comparison with 3 to 4 controls in which […]. Estimates of ED50's were determined from dose response curves.

A further data set concerns the target T1, (H+/K+)-ATPase (Canis lupus familiaris, UniProt P50996).
T1 construct: The microsomes retained at the 15%-30% sucrose interface, after centrifugation at 250,000×g for sixty minutes, were used as the source of (H^+/K^+)-ATPase; from tissue; host or cells: gastric glandular mucosa of mongrel dogs (microsomal fraction, lyophilized)
Nature of the data set: Inhibition of (H+/K+)-ATPase from canine gastric mucosa (inorganic phosphate release). The class given is biochemical. Particulars: canine gastric mucosa microsomes, pH 6.0, 30 min preincubation at 37° C.; read-out: (H+/K+)-ATPase IC50. How it is done: Mongrel dogs weighing 15 to 25 kilograms were fasted for twenty-four hours, with water provided ad libitum. The animals were anesthetized with pentobarbital and the stomachs were removed. Subsequent tissue manipulations and subcellular fractionations were performed at 0° C. to 4° C. After the stomachs were cut open and rinsed with tap water, the antral and cardiac regions were removed and the remaining tissue was rinsed three times in saline. The glandular mucosa was removed mechanically, chopped finely in a medium containing 10 mM Tris hydrochloride (pH 7.4) and 250 mM sucrose, and homogenized. The homogenate was centrifuged at 20,000×g for twenty minutes and the pellet discarded. The supernatant was then centrifuged at 150,000×g for ninety minutes and the supernatant discarded. The pellet was resuspended in the Tris-HCl/sucrose medium by homogenization. Part (2 ml) of the resultant microsomal suspension was layered onto a step gradient consisting of 9 ml of 15% sucrose above 12 ml of 30% sucrose, each sucrose solution being buffered with 10 mM Tris hydrochloride (pH 7.4) containing 0.01% sodium azide. The microsomes retained at the 15%-30% sucrose interface, after centrifugation at 250,000×g for sixty minutes, were used as the source of (H^+/K^+)-ATPase. Microsomal preparations were lyophilized, a process that assured potassium ion permiability, and stored at −10° C. until used.
(H^+/K^+)-ATPase activity for each test compound was determined, in duplicate, by measuring the release of inorganic phosphate, which was assayed according to the method of J. ChandraRajan and L. Klein, Anal. Biochem., 72 , 407 (1976). The (H^+/K^+)-ATPase assay medium consisted of 20 mm mes-Tris (pH 6.0), 5 mM magnesium chloride, 25 mM sucrose, and 4 mM Tris-ATP with or without 20 mM potassium chloride in a total volume of 2 ml. Microsomal suspensions (20 to 60 mcl, containing about 25 mcg protein) were added to the assay medium, without Tris-ATP, and then preincubated with a test compound for thirty minutes at 37° C. The assay was initiated by adding Tris-ATP and the mixture was incubated another thirty minutes at 37° C. A 200-mcl aliquot of the assay mixture was then added to 1.4 ml of a solution consisting of 0.1 M sodium acetate (pH 4.0) and 10% sodium dodecylsulfate, followed by the addition of 200 mcl each of 1% ammonium molybdate and 1% ascorbic acid. At least fifteen minutes later, the optical absorbance at 870 nm (which was proportional to inorganic phosphate concentration up to 100 nmoles per tube, as determined by a standard curve) was obtained. Enzyme activity was linear with incubation time.
(H^+/K^+)-ATPase activity is represented by the difference between the measured activities in the presence of potassium-ion (K^+-stimulated) and in the absence of potassium ion (basal).

[1] abbreviates: intraduodenal, 3 mg/kg i.d., histamine-stimulated, four-hour period.
The mark [2] stands for this setting: iv, 3 mg/kg i.v., histamine-stimulated, four-hour period.

Like-named read-outs stand apart in the source and are kept apart here.

T1 sequence (P50996 whole entry): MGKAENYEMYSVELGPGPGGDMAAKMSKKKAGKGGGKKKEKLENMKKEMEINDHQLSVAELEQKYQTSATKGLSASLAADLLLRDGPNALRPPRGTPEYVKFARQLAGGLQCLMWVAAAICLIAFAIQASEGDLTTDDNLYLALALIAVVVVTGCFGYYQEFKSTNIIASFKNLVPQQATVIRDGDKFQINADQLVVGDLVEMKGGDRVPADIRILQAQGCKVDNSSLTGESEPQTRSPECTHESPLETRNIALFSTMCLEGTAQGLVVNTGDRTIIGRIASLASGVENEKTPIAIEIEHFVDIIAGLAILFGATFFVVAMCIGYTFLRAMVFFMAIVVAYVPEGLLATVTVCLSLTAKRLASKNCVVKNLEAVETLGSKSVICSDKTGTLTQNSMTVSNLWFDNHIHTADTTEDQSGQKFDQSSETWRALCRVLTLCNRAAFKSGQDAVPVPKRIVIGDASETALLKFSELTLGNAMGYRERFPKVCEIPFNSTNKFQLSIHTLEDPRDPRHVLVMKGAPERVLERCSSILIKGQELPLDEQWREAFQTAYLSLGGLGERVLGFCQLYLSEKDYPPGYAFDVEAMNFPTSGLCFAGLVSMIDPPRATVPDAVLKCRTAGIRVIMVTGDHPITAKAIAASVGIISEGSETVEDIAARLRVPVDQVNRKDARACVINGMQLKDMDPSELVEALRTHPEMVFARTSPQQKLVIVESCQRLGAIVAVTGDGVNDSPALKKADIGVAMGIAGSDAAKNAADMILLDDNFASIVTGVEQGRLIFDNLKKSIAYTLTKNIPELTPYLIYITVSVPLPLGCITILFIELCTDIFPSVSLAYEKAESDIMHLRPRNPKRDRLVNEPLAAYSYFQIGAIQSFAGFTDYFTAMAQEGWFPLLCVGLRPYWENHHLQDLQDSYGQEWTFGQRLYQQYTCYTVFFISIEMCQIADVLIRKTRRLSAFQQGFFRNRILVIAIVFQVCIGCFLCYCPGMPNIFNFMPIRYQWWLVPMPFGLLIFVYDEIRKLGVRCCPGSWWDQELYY
T1 sequence (P33704 whole entry partner): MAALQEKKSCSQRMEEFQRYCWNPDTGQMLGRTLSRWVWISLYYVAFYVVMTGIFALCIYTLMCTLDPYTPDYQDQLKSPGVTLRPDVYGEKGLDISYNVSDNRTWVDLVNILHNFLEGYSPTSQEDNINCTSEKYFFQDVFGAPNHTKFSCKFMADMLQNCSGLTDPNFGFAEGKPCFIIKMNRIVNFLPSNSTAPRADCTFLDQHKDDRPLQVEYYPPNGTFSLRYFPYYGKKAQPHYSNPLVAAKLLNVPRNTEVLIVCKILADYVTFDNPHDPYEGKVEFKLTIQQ

As a reminder, the melting point is the temperature, or range, at which the solid turns liquid. In turn, `Nc1ccccc1C[S+]([O-])c1nc2ccccc2[nH]1` (stereo not drawn) [Example 3, 2-[(1H-Benzimidazol-2-ylsulfinyl)methyl]benzenamine] had a melting point of 164 to 165 °C. For the same compound, the inhibition in vivo at 3 mg/kg in the data set with gastric acid secretion (setting [1]) came to 53%. The inhibition in vivo at 3 mg/kg in the data set on gastric acid secretion (setting [2]) stood at 59%. Besides, the IC50 at (H+/K+)-ATPase is 4.3 µM.

In the case of `CC(=O)Nc1ccccc1C[S+]([O-])c1nc2ccccc2[nH]1` (stereo not drawn) [Example 6, N-[2-[(1H-Benzimidazol-2-ylsulfinyl)methyl]phenyl]acetamide], the melting point was in the range of 201 to 202.5 °C. Besides, the inhibition in vivo at 3 mg/kg in the data set with gastric acid secretion (setting [2]) stood at 37%. Besides, the IC50 at (H+/K+)-ATPase was greater than 100 µM.

For `Cc1cccc2[nH]c([S+]([O-])Cc3ccccc3N)nc12.Cc1cccc2[nH]c([S+]([O-])Cc3ccccc3N)nc12.O` (stereo not drawn) [Example 8, 2-[[(4-Methyl-1H-benzimidazol-2-yl)sulfinyl]methyl]benzenamine hemihydrate], in the data set on gastric acid secretion (3 mg/kg i.v., histamine-stimulated, four-hour period), the “Gastric-Fistula Beagle % Inhibition (3 mg/kg dose)” value was 60 i.v. %. For the same compound, the IC50 on (H+/K+)-ATPase was found to be 7.4 µM.

In turn, `Nc1ccc(Cl)cc1C[S+]([O-])c1nc2ccccc2[nH]1` (stereo not drawn) [Example 16, 2-[(1H-Benzimidazol-2-ylsulfinyl)methyl]-4-chlorobenzenamine] yielded a melting point of 210 to 211 °C. In the data set with gastric acid secretion (setting [2]), the inhibition in vivo at 3 mg/kg amounted to 24%. On (H+/K+)-ATPase, the IC50 turned out to be 130 µM.

As to `Nc1cc(Cl)ccc1C[S+]([O-])c1nc2ccccc2[nH]1` (stereo not drawn) [Example 18, 2-[(1H-Benzimidazol-2-ylsulfinyl)methyl]-5-chlorobenzenamine], the melting point lay in the range of 173.5 to 175.5 °C. In the data set on gastric acid secretion (setting [2]), the inhibition in vivo at 3 mg/kg was determined as 13%. In addition, on (H+/K+)-ATPase, the IC50 amounted to 24 µM.

Turning to `Cc1cccc(N)c1C[S+]([O-])c1nc2ccccc2[nH]1` (stereo not drawn) [Example 24, 2-[(1H-Benzimidazol-2-ylsulfinyl)methyl]-3-methylbenzenamine ¼ hydrate], in the data set with gastric acid secretion (setting [2]), the inhibition in vivo at 3 mg/kg stood at 73%. For the same compound, the IC50 on (H+/K+)-ATPase amounted to 0.66 µM.

Turning to `Cc1ccc(N)c(C[S+]([O-])c2nc3ccccc3[nH]2)c1` (stereo not drawn) [Example 26, 2-[(1H-Benzimidazol-2-ylsulfinyl)methyl]-4-methylbenzenamine], the inhibition in vivo at 3 mg/kg in the data set on gastric acid secretion (setting [2]) amounted to 67%. The IC50 on (H+/K+)-ATPase was found to be 2.1 µM.

In turn, `Cc1cccc(C[S+]([O-])c2nc3ccccc3[nH]2)c1N` (stereo not drawn) [Example 28, 2-[(1H-Benzimidazol-2-ylsulfinyl)methyl]-6-methylbenzenamine] had a melting point of 156 to 157 °C. The inhibition in vivo at 3 mg/kg in the data set on gastric acid secretion (setting [1]) was 44%. The inhibition in vivo at 3 mg/kg in the data set with gastric acid secretion (setting [2]) came out at 93%. On (H+/K+)-ATPase, the IC50 is 3.2 µM.

Consider `COc1ccc2[nH]c(SCc3cccc(C)c3N)nc2c1` [Example 35, 2-[[(5-methoxy-1H-benzimidazol-2-yl)thio]methyl]-6-methylbenzenamine], for which the melting point lay within 132 to 134 °C.

The compound `COc1ccc2[nH]c([S+]([O-])Cc3cccc(C)c3N)nc2c1` (stereo not drawn) [Example 36, 2-[[(5-Methoxy-1H-benzimidazol-2-yl)sulfinyl]methyl]-6-methylbenzenamine] had a melting point of 142 to 144 °C. Moreover, in the data set with gastric acid secretion (setting [1]), the inhibition in vivo at 3 mg/kg was determined as 72%. Besides, in the data set with gastric acid secretion (setting [2]), the inhibition in vivo at 3 mg/kg was 96%. Further, the IC50 on (H+/K+)-ATPase came to 5.4 µM.

Take `CCc1cccc(C[S+]([O-])c2nc3ccccc3[nH]2)c1N` (stereo not drawn) [Example 38, 2-[(1H-Benzimidazol-2-ylsulfinyl)methyl]-6-ethylbenzenamine]: in the data set with gastric acid secretion (setting [1]), the inhibition in vivo at 3 mg/kg was found to be 21%. For the same compound, on (H+/K+)-ATPase, the IC50 worked out at 3.9 µM.

Regarding `Nc1ccc(C(F)(F)F)cc1CSc1nc2ccccc2[nH]1` [Example 48, 2-[(1H-Benzimidazol-2-ylthio)methyl]-4-(trifluoromethyl)benzenamine], the melting point was 130 to 137 °C.

For `COc1cc(Cl)c(C)c(CSc2nc3ccccc3[nH]2)c1N` [Example 58, 2-[(1H-Benzimidazol-2-ylthio)methyl]-4-chloro-6-methoxy-3-methylbenzenamine], the melting point is ~ 100 °C.

In turn, `CCOc1ccc2[nH]c([S+]([O-])Cc3cc(C)ccc3N)nc2c1` (stereo not drawn) [Example 61, 2-[[(5-Ethoxy-1H-benzimidazol-2-yl)sulfinyl]-methyl]-4-methylbenzenamine] came in with a melting point of 144 to 145 °C. The IC50 on (H+/K+)-ATPase was 5.3 µM.

As to `COC(=O)c1cccc(C[S+]([O-])c2nc3ccccc3[nH]2)c1N` (stereo not drawn) [Example 69, Methyl 2-amino-3-[(1H-benzimidazol-2-ylsulfinyl)methyl]benzoate hydrate], in the data set on gastric acid secretion (intraduodenal), the inhibition in vivo at 3 mg/kg was found to be 28%. In addition, at (H+/K+)-ATPase, the IC50 was determined as 153 µM.

`CCOC(=O)c1ccc(N)c(CSc2nc3ccccc3[nH]2)c1` [Example 70, Ethyl 4-amino-3-[(1H-benzimidazol-2-ylthio)methyl]benzoate] gave a melting point of 174 to 176 °C.

Compound `CCOC(=O)c1ccc(N)c(CSc2nc3cc(OC)ccc3[nH]2)c1` [Example 72, Ethyl 4-amino-3-[[(5-methoxy-1H-benzimidazol-2-yl)thio]methyl]benzoate] returned a melting point of 140 to 146 °C.

Turning to `Nc1ccc(F)cc1C[S+]([O-])c1nc2ccccc2[nH]1` (stereo not drawn) [Example 76, 2-[(1H-Benzimidazol-2-ylsulfinyl)methyl]-4-fluorobenzenamine], the melting point lay within 184 to 185 °C. Besides, on (H+/K+)-ATPase, the IC50 was determined as 24.9 µM.

As to `Nc1ncccc1C[S+]([O-])c1nc2ccccc2[nH]1` (stereo not drawn) [Example 81, 3-[(1H-Benzimidazol-2-ylsulfinyl)methyl]-2-pyridinamine hydrate], the inhibition in vivo at 3 mg/kg in the data set with gastric acid secretion (iv) worked out at 41%. On (H+/K+)-ATPase, the IC50 was no less than 100 µM.

Regarding `Nc1cccc(C[S+]([O-])c2nc3ccccc3[nH]2)n1` (stereo not drawn) [Example 85, 6-[(1H-Benzimidazol-2-ylsulfinyl)methyl]-2-pyridinamine], the inhibition in vivo at 3 mg/kg with gastric acid secretion (setting [2]) stood at 59%. The IC50 at (H+/K+)-ATPase came out at 2.5 µM.

`COc1ccc2[nH]c([S+]([O-])Cc3cccc(N)n3)nc2c1` (stereo not drawn) [Example 91, 6-[[(5-Methoxy-1H-benzimidazol-2-yl)sulfinyl]-methyl]-2-pyridinamine]: the inhibition in vivo at 3 mg/kg with gastric acid secretion (setting [2]) was 46%. The IC50 at (H+/K+)-ATPase stood at 4.5 µM.

For the compound `CCNc1cccc(C[S+]([O-])c2nc3ccccc3[nH]2)n1` (stereo not drawn) [Example 109, 6-[(1H-Benzimidazol-2-ylsulfinyl)methyl]-N-ethyl-2-pyridinamine], in the data set on gastric acid secretion (setting [1]), the inhibition in vivo at 3 mg/kg is 58%. The IC50 at (H+/K+)-ATPase came to 20 µM.

(Values after patent US6906078B2, “Method of using (H+/K+) ATPase inhibitors as antiviral agents” (Pharmacia Corporation, priority 1994, dated 2005).)
